{"source": "ChEMBL document CHEMBL4190403", "about": "“Design, synthesis, and biological evaluation of pyrazole derivatives containing acetamide bond as potential BRAFV600E inhibitors” (Bioorg Med Chem Lett, 2018)", "key": {"A-375 [1]": {"test_system": "A-375", "assay": "Induction of apoptosis in human A375 cells assessed as necrotic cells at 1 uM after 24 hrs by Annexin V-FITC/propidium iodide staining based flow cytometry (reference value: 0.635 to 3.12%)", "format": "functional"}, "A-375 [2]": {"test_system": "A-375", "assay": "Induction of apoptosis in human A375 cells assessed as late apoptotic cells at 3 uM after 24 hrs by Annexin V-FITC/propidium iodide staining based flow cytometry (reference value: 3.80 to 4.61%)", "format": "functional"}, "A-375 [3]": {"test_system": "A-375", "assay": "Induction of apoptosis in human A375 cells assessed as late apoptotic cells at 3 uM after 36 hrs by Annexin V-FITC/propidium iodide staining based flow cytometry (reference value: 3.80 to 4.61%)", "format": "functional"}, "HT-29": {"test_system": "HT-29", "assay": "Antiproliferative activity against human HT-29 cells harboring BRAF V600E mutant after 24 hrs by MTT assay", "format": "functional, cell-based", "conditions": "HT-29, 24 h"}, "A-375 [4]": {"test_system": "A-375", "assay": "Cell cycle arrest in human A375 cells assessed as accumulation at S phase at 3 uM after 12 hrs by propidium iodide staining-based flow cytometry (reference value: 20.08 to 31.09%)", "format": "functional"}, "A-375 [5]": {"test_system": "A-375", "assay": "Induction of apoptosis in human A375 cells assessed as early apoptotic cells at 3 uM after 24 hrs by Annexin V-FITC/propidium iodide staining based flow cytometry (reference value: 1.22 to 1.64%)", "format": "functional"}, "A-375 [6]": {"test_system": "A-375", "assay": "Induction of apoptosis in human A375 cells assessed as viable cells at 3 uM after 24 hrs by Annexin V-FITC/propidium iodide staining based flow cytometry (reference value: 90.6 to 94.3%)", "format": "functional", "conditions": "A-375, 24 h, read-out: Activity"}, "A-375 [7]": {"test_system": "A-375", "assay": "Cell cycle arrest in human A375 cells assessed as accumulation at G1 phase at 3 uM after 36 hrs by propidium iodide staining-based flow cytometry (reference value: 59.02 to 60.22%)", "format": "functional"}, "A-375 [8]": {"test_system": "A-375", "assay": "Cell cycle arrest in human A375 cells assessed as accumulation at S phase at 3 uM after 24 hrs by propidium iodide staining-based flow cytometry (reference value: 20.08 to 31.09%)", "format": "functional"}, "A-375 [9]": {"test_system": "A-375", "assay": "Induction of apoptosis in human A375 cells assessed as necrotic cells at 3 uM after 24 hrs by Annexin V-FITC/propidium iodide staining based flow cytometry (reference value: 0.635 to 3.12%)", "format": "functional"}, "[10]": {"assay": "Antiproliferative activity against human WM1361 cells harboring wild-type BRAF after 48 hrs by MTT assay", "format": "functional, cell-based", "conditions": "WM1361, 48 h"}, "A-375 [11]": {"test_system": "A-375", "assay": "Induction of apoptosis in human A375 cells assessed as viable cells at 10 uM after 24 hrs by Annexin V-FITC/propidium iodide staining based flow cytometry (reference value: 90.6 to 94.3%)", "format": "functional", "conditions": "A-375, 24 h, read-out: Activity"}, "A-375 [12]": {"test_system": "A-375", "assay": "Induction of apoptosis in human A375 cells assessed as early apoptotic cells at 3 uM after 36 hrs by Annexin V-FITC/propidium iodide staining based flow cytometry (reference value: 1.22 to 1.64%)", "format": "functional"}, "A-375 [13]": {"test_system": "A-375", "assay": "Induction of apoptosis in human A375 cells assessed as viable cells at 3 uM after 12 hrs by Annexin V-FITC/propidium iodide staining based flow cytometry (reference value: 90.6 to 94.3%)", "format": "functional", "conditions": "A-375, 12 h, read-out: Activity"}, "A-375 [14]": {"test_system": "A-375", "assay": "Induction of apoptosis in human A375 cells assessed as late apoptotic cells at 3 uM after 12 hrs by Annexin V-FITC/propidium iodide staining based flow cytometry (reference value: 3.80 to 4.61%)", "format": "functional"}, "A-375 [15]": {"test_system": "A-375", "assay": "Induction of apoptosis in human A375 cells assessed as early apoptotic cells at 3 uM after 12 hrs by Annexin V-FITC/propidium iodide staining based flow cytometry (reference value: 1.22 to 1.64%)", "format": "functional"}, "A-375 [16]": {"test_system": "A-375", "assay": "Induction of apoptosis in human A375 cells assessed as necrotic cells at 3 uM after 12 hrs by Annexin V-FITC/propidium iodide staining based flow cytometry (reference value: 0.635 to 3.12%)", "format": "functional"}, "A-375 [17]": {"test_system": "A-375", "assay": "Cell cycle arrest in human A375 cells assessed as accumulation at G1 phase at 10 uM after 24 hrs by propidium iodide staining-based flow cytometry (reference value: 59.02 to 60.22%)", "format": "functional"}, "A-375 [18]": {"test_system": "A-375", "assay": "Induction of apoptosis in human A375 cells at 3 uM by Annexin V-FITC/propidium iodide staining based flow cytometry", "format": "functional, cell-based", "conditions": "TDE = time-dependent effect"}, "A-375 [19]": {"test_system": "A-375", "assay": "Induction of apoptosis in human A375 cells assessed as necrotic cells at 3 uM after 36 hrs by Annexin V-FITC/propidium iodide staining based flow cytometry (reference value: 0.635 to 3.12%)", "format": "functional"}, "A-375 [20]": {"test_system": "A-375", "assay": "Cell cycle arrest in human A375 cells assessed as accumulation at G1 phase after 24 hrs by propidium iodide staining-based flow cytometry", "format": "functional"}, "A-375 [21]": {"test_system": "A-375", "assay": "Cell cycle arrest in human A375 cells assessed as accumulation at G2/M phase at 3 uM after 36 hrs by propidium iodide staining-based flow cytometry (reference value: 7.91 to 21.07%)", "format": "functional"}, "A-375 [22]": {"test_system": "A-375", "assay": "Cell cycle arrest in human A375 cells assessed as accumulation at G1 phase at 3 uM by propidium iodide staining-based flow cytometry", "format": "functional", "conditions": "TDE = time-dependent effect"}, "A-375 [23]": {"test_system": "A-375", "assay": "Cell cycle arrest in human A375 cells assessed as accumulation at S phase at 10 uM after 24 hrs by propidium iodide staining-based flow cytometry (reference value: 20.08 to 31.09%)", "format": "functional"}, "A-375 [24]": {"test_system": "A-375", "assay": "Induction of apoptosis in human A375 cells assessed as early apoptotic cells at 1 uM after 24 hrs by Annexin V-FITC/propidium iodide staining based flow cytometry (reference value: 1.22 to 1.64%)", "format": "functional"}, "A-375 [25]": {"test_system": "A-375", "assay": "Induction of apoptosis in human A375 cells assessed as late apoptotic cells at 10 uM after 24 hrs by Annexin V-FITC/propidium iodide staining based flow cytometry (reference value: 3.80 to 4.61%)", "format": "functional"}, "A-375 [26]": {"test_system": "A-375", "assay": "Induction of apoptosis in human A375 cells after 24 hrs by Annexin V-FITC/propidium iodide staining based flow cytometry", "format": "functional, cell-based"}, "A-375 [27]": {"test_system": "A-375", "assay": "Cell cycle arrest in human A375 cells assessed as accumulation at S phase at 3 uM after 36 hrs by propidium iodide staining-based flow cytometry (reference value: 20.08 to 31.09%)", "format": "functional"}, "A-375 [28]": {"test_system": "A-375", "assay": "Antiproliferative activity against human A375 cells harboring BRAF V600E mutant after 24 hrs by MTT assay", "format": "functional, cell-based", "conditions": "A-375, 24 h"}, "A-375 [29]": {"test_system": "A-375", "assay": "Induction of apoptosis in human A375 cells assessed as reduction in mitochondrial membrane potential up to 8 uM after 12 hrs using JC-1 staining-based flow cytometry", "format": "functional, cell-based"}, "A-375 [30]": {"test_system": "A-375", "assay": "Cell cycle arrest in human A375 cells assessed as accumulation at G1 phase at 3 uM after 12 hrs by propidium iodide staining-based flow cytometry (reference value: 59.02 to 60.22%)", "format": "functional"}, "A-375 [31]": {"test_system": "A-375", "assay": "Cell cycle arrest in human A375 cells assessed as accumulation at G2/M phase at 10 uM after 24 hrs by propidium iodide staining-based flow cytometry (reference value: 7.91 to 21.07%)", "format": "functional"}, "[32]": {"target": "Serine/threonine-protein kinase B-raf (Mus musculus, UniProt P28028, V600E)", "sequence (P28028 whole entry, looked up, stated change not applied)": "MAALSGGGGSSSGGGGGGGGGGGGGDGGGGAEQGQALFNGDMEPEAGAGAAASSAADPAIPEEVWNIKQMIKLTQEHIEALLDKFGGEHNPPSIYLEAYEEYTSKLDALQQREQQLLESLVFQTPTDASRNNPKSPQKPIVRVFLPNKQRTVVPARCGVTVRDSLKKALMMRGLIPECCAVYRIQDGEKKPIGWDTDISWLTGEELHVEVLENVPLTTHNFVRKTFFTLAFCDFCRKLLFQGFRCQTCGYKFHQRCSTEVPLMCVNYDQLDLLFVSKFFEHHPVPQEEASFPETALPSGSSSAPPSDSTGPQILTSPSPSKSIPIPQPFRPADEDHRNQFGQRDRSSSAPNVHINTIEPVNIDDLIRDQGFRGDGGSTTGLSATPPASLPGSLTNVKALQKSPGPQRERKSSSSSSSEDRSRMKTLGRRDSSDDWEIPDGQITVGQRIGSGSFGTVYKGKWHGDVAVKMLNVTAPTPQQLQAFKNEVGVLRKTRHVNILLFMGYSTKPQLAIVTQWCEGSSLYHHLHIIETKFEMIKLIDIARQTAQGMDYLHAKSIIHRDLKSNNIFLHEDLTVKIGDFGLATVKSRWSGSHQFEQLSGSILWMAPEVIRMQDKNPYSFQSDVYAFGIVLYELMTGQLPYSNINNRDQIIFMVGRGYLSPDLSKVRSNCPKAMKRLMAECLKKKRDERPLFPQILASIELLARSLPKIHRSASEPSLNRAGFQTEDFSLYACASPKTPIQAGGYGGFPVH", "assay": "Inhibition of full-length GST-tagged mouse BRAF V600E mutant using recombinant human full length N-terminal His-tagged MEK1 as substrate preincubated for 1 hr followed by substrate addition measured after 25 mins by Nu-page gel-based phosphor screen analysis"}, "A-375 [33]": {"test_system": "A-375", "assay": "Induction of apoptosis in human A375 cells assessed as late apoptotic cells at 1 uM after 24 hrs by Annexin V-FITC/propidium iodide staining based flow cytometry (reference value: 3.80 to 4.61%)", "format": "functional"}}, "note": "The source made the active and inactive calls. No cut-off for these calls is given here."}
{"smiles": "COc1ccc(-n2cc(NC(=O)Cn3ccc(-c4cccc(Cl)c4)n3)cn2)cc1", "values": [{"measurement": "Activity", "setting": "A-375 [1]", "result": 4.51, "unit": "%"}, {"measurement": "Activity", "setting": "A-375 [2]", "result": "19.1 - 29.2%"}, {"measurement": "Activity", "setting": "A-375 [3]", "result": 59.7, "unit": "%"}, {"measurement": "IC50", "setting": "HT-29", "result": 2170, "unit": "nM"}, {"measurement": "Activity", "setting": "A-375 [4]", "result": 35.98, "unit": "%"}, {"measurement": "Activity", "setting": "A-375 [5]", "result": "3.01 - 3.25%"}, {"measurement": "viability at 3 µM", "setting": "A-375 [6]", "result": "64.7 to 72.9", "unit": "%"}, {"measurement": "Activity", "setting": "A-375 [7]", "result": 35.56, "unit": "%"}, {"measurement": "Activity", "setting": "A-375 [8]", "result": "43.96 - 45.74%"}, {"measurement": "Activity", "setting": "A-375 [9]", "result": "2.89 - 4.99%"}, {"measurement": "IC50", "setting": "[10]", "result": 10200, "unit": "nM"}, {"measurement": "viability at 10 µM", "setting": "A-375 [11]", "result": 53.2, "unit": "%"}, {"measurement": "Activity", "setting": "A-375 [12]", "result": 1.95, "unit": "%"}, {"measurement": "viability at 3 µM", "setting": "A-375 [13]", "result": 65.3, "unit": "%"}, {"measurement": "Activity", "setting": "A-375 [14]", "result": 19.7, "unit": "%"}, {"measurement": "Activity", "setting": "A-375 [15]", "result": 5.22, "unit": "%"}, {"measurement": "Activity", "setting": "A-375 [16]", "result": 9.77, "unit": "%"}, {"measurement": "Activity", "setting": "A-375 [17]", "result": 39.32, "unit": "%"}, {"measurement": "Activity", "setting": "A-375 [18]", "result": "Tde"}, {"measurement": "Activity", "setting": "A-375 [19]", "result": 5.58, "unit": "%"}, {"measurement": "Activity", "setting": "A-375 [20]", "result": "Dose-dependent effect"}, {"measurement": "Activity", "setting": "A-375 [21]", "result": 10.06, "unit": "%"}, {"measurement": "Activity", "setting": "A-375 [22]", "result": "Tde"}, {"measurement": "Activity", "setting": "A-375 [23]", "result": 47.03, "unit": "%"}, {"measurement": "Activity", "setting": "A-375 [24]", "result": 1.92, "unit": "%"}, {"measurement": "Activity", "setting": "A-375 [25]", "result": 37.5, "unit": "%"}, {"measurement": "Activity", "setting": "A-375 [26]", "result": "Dose-dependent effect"}, {"measurement": "Activity", "setting": "A-375 [27]", "result": 52.38, "unit": "%"}, {"measurement": "IC50", "setting": "A-375 [28]", "result": 960, "unit": "nM"}, {"measurement": "Activity", "setting": "A-375 [29]", "result": "Active"}, {"measurement": "Activity", "setting": "A-375 [30]", "result": 51.08, "unit": "%"}, {"measurement": "Activity", "setting": "A-375 [31]", "result": 10.95, "unit": "%"}, {"measurement": "IC50", "setting": "[32]", "result": 100, "unit": "nM"}, {"measurement": "Activity", "setting": "A-375 [33]", "result": 14.1, "unit": "%"}]}
